The text below walks through data of article PMC9243000 (Cell Discovery, 2022).

Where two headings read alike, the source gives them in different places. Positions of bridges follow the written chain, without caps; N, C: chain ends. Residues, ends and D or L forms follow the SMILES beside them. Chains are numbered I, II in the order given. No end group written: not given here.

Data set [1] has as its system SARS-CoV-2 (HKU001a). As to conditions: for 50% inhibitory concentration IC50: HKU001a, 18 h; for antiviral activity in the low salt condition: low salt (30 mM, PBS/5), plaque reduction assay. In general terms: Plaques are areas of infected cells; plaque reduction assays count them against a control.
The subject of data set [2] is SARS-CoV-2. As to conditions: cited from earlier work.
Data set [3] has as its system fusion between 293T-Spike and Calu-3 cells. The data set is classed as cell-based.
In data set [4] the test system is spike-ACE2-mediated cell fusion in 293T cells. The data set is classed as cell-based. As to conditions: 4H30 40 μM, bafilomycin A1 50 nM, remdesivir 80 μM; 6 h post coculture.
The test system of data set [5] is SARS-CoV-2 (B.1.617.2, Delta). Briefly: Post-exposure antiviral assay in hamsters, Delta. To be noted: for syncytia formation in hamster lungs: Delta, compared with mock-treated hamsters; for inhibition of viral replication in hamster lungs (PFU/lung) / lung inflammation: in vivo, hamster. It is filed as in vivo.
A short description of data set [6]: ELISA binding to chondroitin sulfate. To be noted: CS 300, 75 ng coated on ELISA plate; detection by anti-HBD2; compared with BSA; n = 4. A general note: In an ELISA, binding on a coated surface is turned into a signal by an enzyme label.
The conditions of data set [7]: mice; intranasal, three doses of 0.5 mg/kg within two days; compared with the PBS group; three mice in each group.
Data set [8] deals with SARS-CoV-2. Briefly: Viral RNA copies in VeroE6 cell lysate after pretreatment (RT-qPCR). The data set is classed as cell-based. As to conditions: virus pretreated by 4H30 (25 μg/mL), DMEM-treated virus 50-fold, n = 4. (Real-time PCR tracks product formation cycle by cycle.)
A short description of data set [9]: ELISA binding to heparan sulfate. To be noted: HS 300, 75 ng coated on ELISA plate; detection by anti-HBD2; compared with BSA; n = 4.
In data set [10] the test system is SARS-CoV-2 (B.1.1.63). Briefly: Pre-exposure antiviral assay in hamsters. It is filed as in vivo. As to conditions: compared with mock-treated hamsters.
Data set [11] has as its system SARS-CoV-2 (B.1.1.63). Briefly: Post-exposure antiviral assay in hamsters, B.1.1.63. As to conditions: hamster, in vivo.
Data set [12] can be described thus: Cytotoxicity MTT assay, VeroE6. It is filed as cell-based. As to conditions: VeroE6 cells, 24 h at 37 °C, DMEM with 1% FBS, n = 3, read-out: 50% toxicity concentration (TC50). Here is the method:
(§1) Cytotoxicity of peptides was determined by the detection of 50% cytotoxic concentration (CC50) using a tetrazolium-based colorimetric MTT assay. Briefly, cells were seeded in a 96-well cell culture plate at an initial density of 4 × 10^4 cells per well in DMEM supplemented with 10% FBS and incubated overnight. Cell culture media were removed and then DMEM supplemented with various concentrations of peptides and 1% FBS were added to each well. After 24 h incubation at 37 °C, MTT solution (5 mg/mL, 10 μL per well) was added to each well for incubation at 37 °C for 4 h. Then, 100 μL of 10% SDS in 0.01 M HCl was added to each well. After further incubation at room temperature with shaking overnight, the plates were read at OD570 using VictorTM X3 Multilabel Reader (PerkinElmer, USA). Cell culture wells without peptides were used as the experiment control and the medium only served as a blank control.

Data set [13] deals with SARS-CoV-2. Briefly: Viral release assay. It is filed as cell-based.
The target in data set [14] is spike-ACE2 binding (Severe acute respiratory syndrome coronavirus 2, UniProt P0DTC2). Briefly: ELISA of spike binding to ACE2. To be noted: ACE2 (150 ng) coated on ELISA plate; n = 6.
For data set [15] the following is noted: intranasal, three doses of 0.5 mg/kg within two days; 4 days post-inoculation.
For data set [16], the system named is SARS-CoV-2. Briefly: Viral attachment assay at 4 °C (RT-qPCR). It is filed as cell-based.
The subject of data set [17] is endosomal acidification in VeroE6 cells. Briefly: Endosomal acidification assay. As to conditions: 4H30 25 μg/mL, bafilomycin A1 50 nM, pH-sensitive dye. It is filed as cell-based. On the procedure: Endosomal acidification was detected with a pH-sensitive dye (pHrodo green dextran, Invitrogen, Cat^# P35365) according to the manufacturer’s instructions as previously described but with slight modification. First, VeroE6 cells were treated with DMEM, 4H30 (25.0 μg/mL), or bafilomycin A1 (50.0 nM) at 4 °C for 15 min. Second, VeroE6 cells were added with 100 μg/mL of pH-sensitive dye and DAPI and then incubated at 4 °C for 15 min. Before taking images, cells were further incubated at 37 °C for 15 min and then cells were washed twice with PBS. Finally, PBS was added to cells and images were taken immediately with a confocal microscope (Carl Zeiss LSM 800, Germany).
Supplementary Fig. S7. 4H30 could inhibit endosomal acidification in VeroE6 cells. VeroE6 cells were treated with pH-sensitive dye (green in low pH endosomes) and the indicated inhibitor 4H30 (25 μg/mL), bafilomycin A1 (BA1, 50 nM) or DMEM. Nuclei were stained as blue. Cell only without treatment was the negative control (Neg). Representative live-cell images were taken by confocal microscope. Experiments were repeated with two independent biological samples. […]

A short description of data set [18]: Cytotoxicity MTT assay, Calu-3. It is filed as cell-based. To be noted: human, Calu-3 cells, 24 h at 37 °C, DMEM with 1% FBS, n = 3, read-out: 50% toxicity concentration (TC50). Here is the method:
as §1

Data set [19] deals with SARS-CoV-2. Briefly: Plaque assay after 10,000-fold dilution of treated virus. The data set is classed as cell-based.
Data set [20] deals with SARS-CoV-2 B.1.1.63. As to conditions: B.1.1.63, 18 h.
Data set [21] has as its system MERS-CoV. As to conditions: 18 h.

What is called IC50 is the concentration that inhibits the measured activity by half. Read a low IC50 as inhibition by little substance.

`CC[C@H](C)[C@H](NC(=O)[C@H](C)NC(=O)CN)C(=O)N[C@@H](CS)C(=O)N[C@@H](Cc1c[nH]cn1)C(=O)N1CCC[C@H]1C(=O)N[C@H](C(=O)N[C@@H](Cc1ccccc1)C(=O)N[C@@H](CS)C(=O)N1CCC[C@H]1C(=O)N[C@@H](CCCNC(=N)N)C(=O)N[C@@H](CCCNC(=N)N)C(=O)N[C@@H](Cc1ccc(O)cc1)C(=O)N[C@@H](CCCCN)C(=O)N[C@@H](CCC(N)=O)C(=O)N[C@H](C(=O)NCC(=O)N[C@H](C(=O)N[C@@H](CS)C(=O)NCC(=O)N[C@@H](CC(C)C)C(=O)N1CCC[C@H]1C(=O)NCC(=O)N[C@H](C(=O)N[C@@H](CCCCN)C(=O)N[C@@H](CS)C(=O)N[C@@H](CS)C(=O)N[C@@H](CCCCN)C(=O)N[C@@H](CCCCN)C(=O)N1CCC[C@H]1C(=O)O)[C@@H](C)O)[C@@H](C)O)[C@@H](C)CC)C(C)C` [H30] (H-GAICHPVFCPRRYKQIGTCGLPGTKCCKKP-OH; N-terminus and C-terminus assumed): in data set [1], the “50% inhibitory concentration IC50” value is over 25 µg/mL and the “antiviral activity in the low salt condition” value was “more effective in the low salt condition”.

In the case of `CN(C)C(=O)COC(=O)Cc1ccc(OC(=O)c2ccc(NC(=N)N)cc2)cc1` [camostat], the “inhibition of SARS-CoV-2 in hamsters by camostat alone” value in data set [2] is listed as “not significantly inhibited”. Besides, the “inhibition of cell-cell fusion, 293T-Spike + Calu-3” value (shortened to “inhibition of cell-cell fusion”) in data set [3] is on record as “could show the inhibition”.

On to `CCC(CC)COC(=O)[C@H](C)N[P@](=O)(OC[C@H]1O[C@@](C#N)(c2ccc3c(N)ncnn23)[C@H](O)[C@@H]1O)Oc1ccccc1` [remdesivir, reference compound], for which, in [4], the “inhibition of spike-ACE2-mediated cell fusion, 293T-Spike + 293T-ACE2” value (from here on “inhibition … 293T-Spike + 293T-ACE2”) is given as “without inhibition”. For the same molecule, in data set [5], the “syncytia formation in hamster lungs” value is reported as “syncytia could be easily observed”, the “inhibition of viral replication in hamster lungs (PFU/lung)” value is given as 33 fold and the lung inflammation result is “could reduce lung inflammation”.

Regarding “I: GAICHPVFCPRRYKQIGTCGLPGTKCCKKPKK / II: GAICHPVFCPRRYKQIGTCGLPGTKCCKKPK / III: GAICHPVFCPRRYKQIGTCGLPGTKCCKKP / IV: GAICHPVFCPRRYKQIGTCGLPGTKCCKKP (amide I:31-IV:C, I:32-II:C, II:31-III:C; cysteines drawn unpaired) [4H30]”, the “binding to chondroitin sulfate (CS)” value in data set [6] is on record as “effectively bind”. In data set [7], the “lung histopathology and body weight changes for 40 days” value is “no significant histopathological and consistent body weight change”. The “viral RNA increase at 6 hpi compared with viral load at 1 hpi” value in data set [8] is “less than threefold”. The “binding to heparan sulfate (HS)” value in data set [9] is on record as “effectively bind”. Moreover, the “syncytia in bronchial epithelium” value in data set [10] is recorded as “reduced”. Also, in data set [1], the “50% inhibitory concentration IC50” value was determined as 0.59 µg/mL and the “antiviral activity in the low salt condition” value is “significantly inhibited”. In data set [11], the “inhibition of SARS-CoV-2 replication in lungs, post-exposure” value was “significantly inhibit”. Moreover, in data set [12], the CC50 at 24 h was over 400 µg/mL. Besides, the “inhibition … 293T-Spike + 293T-ACE2” value in data set [4] is reported as “could inhibit the fusion”. In addition, in data set [13], the “inhibition of viral release” value is “significantly inhibit viral release”. Further, the “effect on binding between the spike and ACE2” value in [14] is given as “did not directly affect the binding”. Moreover, the “pathological and body weight changes in hamsters” value in data set [15] was “did not cause significant pathological and body weight changes”. Besides, the “SARS-CoV-2 attachment to A549 (ACE2–) and Calu-3 (ACE2+) cells” value in data set [16] (cells treated with 12.5 μg/mL, attachment at 4 °C, compared with BSA- or DMEM-treated cells) was “significantly increased”. For the same molecule, the “SARS-CoV-2 attachment to VeroE6 cells” value in data set [16] (virus pre-mixed with 25 μg/mL for 1 hour, attachment at 4 °C for 1 hour, n = 4) is listed as “increase”. Besides, the “inhibition of endosomal acidification in live cells” value in data set [17] is “could inhibit”. Moreover, in data set [5], the “syncytia formation in hamster lungs” value is given as “could reduce the syncytia formation”, the “inhibition of viral replication in hamster lungs (PFU/lung)” value came to 9 fold and the lung inflammation result is given as “could reduce lung inflammation”. Moreover, the CC50 at 24 h in data set [18] is over 400 µg/mL. Besides, the “inhibition of cell-cell fusion” value in data set [3] (4H30 125 μg/mL, bafilomycin A1 50 nM, camostat 100 μg/mL, 6-8 h post-coculture) is “could not inhibit”. For the same molecule, the “inhibition of infection after dilution of treated virus” value in [19] is listed as “significantly inhibit”. In [20], the IC50 worked out at 0.48 µg/mL. The same molecule returned an IC50 in data set [21] of 1.01 µg/mL.

Consider `CO/C1=C\C(C)=C\[C@@H](C)[C@@H](O)[C@@H](C)C/C(C)=C/C=C/[C@H](OC)[C@@H]([C@@H](C)[C@@H](O)[C@H](C)[C@@]2(O)C[C@@H](O)[C@H](C)[C@@H](C(C)C)O2)OC1=O` [bafilomycin A1], for which the “inhibition … 293T-Spike + 293T-ACE2” value in data set [4] is recorded as “inhibition”. For the same molecule, the “inhibition of endosomal acidification in live cells” value in data set [17] is “could inhibit”. Moreover, in data set [3], the “inhibition of cell-cell fusion” value was “could not inhibit”. For the same molecule, in [3] (4H30 125 μg/mL, BA1 50 nM, 6-8 h post-coculture, non-fusion cell size ~10 μm), the “cell fusion size, 293T-Spike + Calu-3” value is over 40 μm.
